The source of these data is ChEMBL document CHEMBL4257548, “Phenothiazine antioxidants increase mitochondrial biogenesis and frataxin levels in Friedreich's ataxia cells” (Medchemcomm, 2018).

Structures are written as SMILES. The source made the active and inactive calls. The calls are words filed in the database; no cut-off is given here.

Data set [1] has as its system GM15850. Description: Effect on mitochondrial membrane potential in human GM15850 cells assessed as loss of mitochondrial membrane potential at 0.25 uM after 16 hrs by JC1 staining based flow cytometry (reference value: 13%). It counts as functional. On the technique in general: In flow cytometry, cells or beads pass a laser one at a time.
For data set [2], the system named is GM16216. Description: Effect on ATP production in human GM16216 cells at 0.1 uM after 24 hrs by Vialight reagent based luminescence assay. In kind it is functional, cell-based.
Data set [3] has as its system GM15850. As to the kind of experiment: Inhibition of ATP production in human GM15850 cells after 24 hrs by Vialight reagent based luminescence assay. In kind it is functional, cell-based.
Data set [4] has as its system GM15850. As to the kind of experiment: Effect on ATP production in human GM15850 cells at 0.1 uM after 24 hrs by Vialight reagent based luminescence assay. It counts as functional, cell-based.
Data set [5] has as its system GM15850. As to the kind of experiment: Cytotoxicity against human GM15850 cells at 2.5 uM after 24 to 48 hrs by live/dead staining-based flow cytometry. In kind it is cell-based. The conditions noted are these: gm15850, 2.5 µM.
For data set [6], the system named is GM15850. As to the kind of experiment: Effect on mitochondrial membrane potential in human GM15850 cells assessed as intact mitochondrial membrane at 0.25 uM after 16 hrs by JC1 staining based flow cytometry (reference value: 87%). In kind it is functional.
Data set [7] relates to GM16216. As to the kind of experiment: Inhibition of ATP production in human GM16216 cells after 24 hrs by Vialight reagent based luminescence assay. In kind it is functional, cell-based.
Data set [8] deals with GM16216. As to the kind of experiment: Effect on mitochondrial membrane potential in human GM16216 cells assessed as intact mitochondrial membrane at 0.25 uM after 16 hrs by JC1 staining based flow cytometry (reference value: 87%). It counts as functional.
Data set [9] deals with GM16216. As to the kind of experiment: Cytotoxicity against human GM16216 cells at 2.5 uM after 24 to 48 hrs by live/dead staining-based flow cytometry. It counts as cell-based. The conditions noted are these: gm16216, 2.5 µM.
Data set [10] deals with GM16216. As to the kind of experiment: Effect on mitochondrial membrane potential in human GM16216 cells assessed as loss of mitochondrial membrane potential at 0.25 uM after 16 hrs by JC1 staining based flow cytometry (reference value: 13%). It counts as functional.
In data set [11] the test system is GM16216. As to the kind of experiment: Cytoprotection against DEM-induced toxicity in human GM16216 cells assessed as increase in cell viability at 0.5 to 2.5 uM pretreated for 16 hrs followed by DEM addition and measured after 5 hrs by live/dead staining based flow cytometry. In kind it is functional.
Data set [12] concerns GM15850. Description: Cytoprotection against DEM-induced toxicity in human GM15850 cells assessed as increase in cell viability at 0.5 to 2.5 uM pretreated for 16 hrs followed by DEM addition and measured after 5 hrs by live/dead staining based flow cytometry. In kind it is functional.
Data set [13] deals with GM16216. Description: Increase in frataxin expression in human GM16216 cells at 250 nM after 24 to 48 hrs by ELISA. In kind it is functional, cell-based.
The subject of data set [14] is GM15850. As to the kind of experiment: Increase in ATP production in human GM15850 cells at 0.1 to 0.5 uM after 24 hrs by Vialight reagent based luminescence assay. It counts as functional, cell-based.
The test system of data set [15] is GM16216. Description: Increase in ATP production in human GM16216 cells at 0.1 to 0.5 uM after 24 hrs by Vialight reagent based luminescence assay. In kind it is functional, cell-based.
Data set [16] deals with GM15850. Description: Increase in frataxin expression in human GM15850 cells at 250 nM after 24 to 48 hrs by ELISA. In kind it is functional, cell-based. Background: An ELISA detects its analyte on a solid surface through an enzyme-linked reagent.
Data set [17] concerns GM15850. Description: Increase in frataxin expression in human GM15850 cells at 50 nM after 24 to 48 hrs by ELISA. In kind it is functional, cell-based.
Data set [18] concerns GM16216. Description: Increase in frataxin expression in human GM16216 cells at 50 nM after 24 to 48 hrs by ELISA. In kind it is functional, cell-based.
Data set [19] has as its system GM15850. As to the kind of experiment: Cytotoxicity against human GM15850 cells at 0.25 to 2.5 uM after 24 to 48 hrs by live/dead staining-based flow cytometry. In kind it is cell-based. The conditions noted are these: gm15850, 2.5 µM.
The subject of data set [20] is GM15850. Description: Inhibition of ATP production in human GM15850 cells at 2.5 uM after 24 hrs by Vialight reagent based luminescence assay. It counts as functional, cell-based.
The test system of data set [21] is GM16216. Description: Cytotoxicity against human GM16216 cells at 0.25 to 2.5 uM after 24 to 48 hrs by live/dead staining-based flow cytometry. In kind it is cell-based. The conditions noted are these: gm16216, 2.5 µM.
Data set [22] deals with GM16216. Description: Inhibition of ATP production in human GM16216 cells at 2.5 uM after 24 hrs by Vialight reagent based luminescence assay. It counts as functional, cell-based.
In data set [23] the test system is GM15850. As to the kind of experiment: Increase in frataxin expression in human GM15850 cells at 50 to 250 nM after 24 to 48 hrs by ELISA. In kind it is functional, cell-based.
Data set [24] deals with GM16216. Description: Increase in frataxin expression in human GM16216 cells at 50 to 250 nM after 24 to 48 hrs by ELISA. It counts as functional, cell-based.
Data set [25] relates to GM15850. Description: Induction of mitochondrial biogenesis in human GM15850 cells assessed as increase in ratio of COX1 to SDH-A protein levels at 50 to 250 nM after 24 to 48 hrs by ELISA. It counts as functional, cell-based.
Data set [26] relates to GM16216. As to the kind of experiment: Induction of mitochondrial biogenesis in human GM16216 cells assessed as increase in ratio of COX1 to SDH-A protein levels at 50 to 250 nM after 24 to 48 hrs by ELISA. It counts as functional, cell-based.

Consider `CCCCCc1cc2nc3ccc(N(C)C)cc3sc-2cc1=[N+](C)C.[I-]`, for which the Activity is on record as 19% in the data set on GM15850 [1]; “Toxic” in the data set on GM15850 [5]; 81% in the data set with GM15850 [6]; 81% with GM16216 [8]; “Toxic” in the data set on GM16216 [9]; 19% with GM16216 [10]. Further, the result in the data set on GM16216 [2] and in the data set with GM15850 [4] was inactive. Besides, the inhibition entry in the data set with GM15850 [3] and in the data set on GM16216 [7] was “Dose-dependent effect” in each case. Moreover, the outcome in the data set with GM16216 [11] and with GM15850 [12] was Active.

Turning to `CCCCCCCCCCCCCc1cc2nc3ccc(N(C)C)cc3sc-2cc1=[N+](C)C.[I-]`, the Activity in the data set on GM15850 [1] is recorded as 18%; with GM15850 [5], “Toxic”; in the data set on GM15850 [6], 82%; with GM16216 [8], 82%; in the data set on GM16216 [9], “Toxic”; in the data set with GM16216 [10], 18%. Moreover, the outcome in the data set with GM16216 [2] and with GM15850 [4] was inactive. The inhibition result with GM15850 [3] and in the data set with GM16216 [7] was “Dose-dependent effect” each time. Also, the outcome in the data set on GM16216 [11] and in the data set on GM15850 [12] was Active.

As for `CCCCCCCCCCCCCCCCc1cc2nc3ccc(N(C)C)cc3sc-2cc1=[N+](C)C.[I-]`, the Activity is recorded as 14% in the data set on GM15850 [1]; 86% in the data set on GM15850 [6]; “Non-Toxic” with GM15850 [19]; 86% with GM16216 [8]; 14% in the data set on GM16216 [10]; “Non-Toxic” in the data set on GM16216 [21]. The outcome with GM16216 [13] and with GM15850 [16] was inactive. The outcome with GM15850 [14], with GM16216 [15], with GM15850 [17], in the data set on GM16216 [18], in the data set with GM16216 [11] and in the data set with GM15850 [12] was Active. Also, the inhibition result in the data set with GM15850 [20] and in the data set with GM16216 [22] was “Active” each time.

Take `CN(C)c1ccc2nc3ccc(=[N+](C)C)cc-3sc2c1`: the result in the data set on GM16216 [2] and in the data set on GM15850 [4] was inactive. For the same molecule, the inhibition result with GM15850 [3] and with GM16216 [7] was “Dose-dependent effect” in each case. For the same molecule, the result in the data set on GM15850 [23], in the data set on GM16216 [24], with GM15850 [25], in the data set with GM16216 [26], in the data set with GM16216 [11] and with GM15850 [12] was Active.
